Results from patent US20260265202A1, “N-(N-AMINOALKYL)[…] SERIES OF CHLORIDE-SENSITIVE FLUOROPHORES AND METHODS OF USE THEREOF” (The General Hospital Corporation, priority 2022, published 2026).

How the values were obtained:
[1] = Spectrophotometry and two-photon excitation scans; format: physicochemical
Description: Spectrophotometry: Absorption readings were obtained using a Nanodrop One system (Thermo Scientific), while excitation and emission scans were obtained using a Spectramax M2 dual grating system (Molecular Devices). Intensity scans relative to excitation wavelength obtained on either of our custom two-photon excitation (2PE) rigs were analyzed with ImageJ and plotted using Matlab (v2022b).

[2] = Toxicity of probe (stated key feature)

| fluorescence emission maximum ([1]; excitation at 360 nm) | excitation wavelength using 2PE [1] [nm] | SMILES | toxicity [2] |
| --- | --- | --- | --- |
| approximately 420 nm |  | NCCCC[n+]1cc2ccccc2c2ccccc21 [ABP, N-(4-aminobutyl)phenantridinium] | absence of toxicity |
|  | 710 | O=S(=O)(O)CCCC[n+]1ccc2ccccc2c1 [NSBQ, N-4(sulfobutyl)isoquinolinium, reference compound] |  |
